Measurements published in patent US11083725B2 (priority 2014, dated 2021).

Tested on: NHBE cells
Assay: Biolog metabolic array: substrate use by NHBE cells with or without CA09 infection
Assay type: cell-based, human
Conditions: for Substrate use, 590 nm absorbance normalized to zero hour, 0 hr: Biolog PMM2, 0 hr; for Substrate use, 590 nm absorbance normalized to zero hour, 1 hr: Biolog PMM2, 1 hr; for Substrate use, 590 nm absorbance normalized to zero hour, 5 hr: Biolog PMM2, 5 hr; for Substrate use, 590 nm absorbance normalized to zero hour, 7 hr: Biolog PMM2, 7 hr
[1] = Control (uninfected) NHBE cells
[2] = Virus (CA09-infected, MOI 1) NHBE cells
[3] = Virus: CA09-infected NHBE cells, MOI 1, Biolog PMM2
[4] = Virus (CA09, MOI 1) infected NHBE cells

Row | SMILES | 590 nm absorbance normalized to zero hour (substrate use), 1 hr [1] | 590 nm absorbance normalized to zero hour (substrate use), 2 hr [1] | 590 nm absorbance normalized to zero hour (substrate use), 3 hr [1] | 590 nm absorbance normalized to zero hour (substrate use), 4 hr [1] | 590 nm absorbance normalized to zero hour (substrate use), 6 hr [1] | 590 nm absorbance normalized to zero hour (substrate use), 8 hr [1] | 590 nm absorbance normalized to zero hour (substrate use), 9 hr [1] | 590 nm absorbance normalized to zero hour (substrate use), 10 hr [1] | 590 nm absorbance normalized to zero hour (substrate use), 11 hr [1] | Substrate use, 590 nm absorbance normalized to zero hour, 1 hr [1] | Substrate use, 590 nm absorbance normalized to zero hour, 5 hr [1] | Substrate use, 590 nm absorbance normalized to zero hour, 7 hr [1] | 590 nm absorbance normalized to zero hour (substrate use), 1 hr [2] | 590 nm absorbance normalized to zero hour (substrate use), 2 hr [2] | 590 nm absorbance normalized to zero hour (substrate use), 3 hr [2] | 590 nm absorbance normalized to zero hour (substrate use), 4 hr [2] | 590 nm absorbance normalized to zero hour (substrate use), 6 hr [2] | 590 nm absorbance normalized to zero hour (substrate use), 8 hr [2] | 590 nm absorbance normalized to zero hour (substrate use), 9 hr [2] | 590 nm absorbance normalized to zero hour (substrate use), 10 hr [2] | other results
1 | OC[C@H]1O[C@@](CO)(O[C@H]2O[C@H](CO)[C@@H](O)[C@H](O)[C@H]2O)[C@@H](O[C@H]2O[C@H](CO)[C@@H](O)[C@H](O)[C@H]2O)[C@@H]1O [D-Melezitose] | 1.47 | 1.93 | 2.23 | 2.39 | 3.85 | 3.55 | 3.84 | 4.31 | 3.97 | 1.47 | 2.80 | 3.32 | 1.67 | 2.39 | 2.73 | 2.88 | 3.57 | 3.98 | 4.49 | 4.69 | 590 nm absorbance normalized to zero hour (substrate use), 0 hr [1]: 1.00; Substrate use, 590 nm absorbance normalized to zero hour, 0 hr [1]: 1.00; 590 nm absorbance normalized to zero hour (substrate use), 0 hr [2]: 1.00; 590 nm absorbance normalized to zero hour (substrate use), 5 hr [2]: 3.35; 590 nm absorbance normalized to zero hour (substrate use), 7 hr [2]: 3.77; 590 nm absorbance normalized to zero hour (substrate use), 11 hr [2]: 5.01; 590 nm absorbance normalized to zero hour (substrate use), 0 hr [3]: 1.00; 590 nm absorbance normalized to zero hour (substrate use), 1 hr [3]: 1.67; 590 nm absorbance normalized to zero hour (substrate use), 2 hr [3]: 2.39; 590 nm absorbance normalized to zero hour (substrate use), 3 hr [3]: 2.73; 590 nm absorbance normalized to zero hour (substrate use), 4 hr [3]: 2.88; 590 nm absorbance normalized to zero hour (substrate use), 5 hr [3]: 3.35; 590 nm absorbance normalized to zero hour (substrate use), 6 hr [3]: 3.57; 590 nm absorbance normalized to zero hour (substrate use), 7 hr [3]: 3.77; 590 nm absorbance normalized to zero hour (substrate use), 8 hr [3]: 3.98; 590 nm absorbance normalized to zero hour (substrate use), 9 hr [3]: 4.49; 590 nm absorbance normalized to zero hour (substrate use), 10 hr [3]: 4.69; 590 nm absorbance normalized to zero hour (substrate use), 11 hr [3]: 5.01
2 | O=P(O)(O)O[C@H]1O[C@H](CO)[C@@H](O)[C@H](O)[C@H]1O [D-Glucose-1-Phosphate] | 1.01 | 1.31 | 1.24 | 1.16 | 0.33 | 1.03 | 1.09 | 1.06 | 0.93 | 1.01 | 1.12 | 1.10 | 1.74 | 2.39 | 2.86 | 3.20 | 4.34 | 4.91 | 5.77 | 5.49 | 590 nm absorbance normalized to zero hour (substrate use), 0 hr [1]: 1.00; Substrate use, 590 nm absorbance normalized to zero hour, 0 hr [1]: 1.00; Substrate use, 590 nm absorbance normalized to zero hour, 0 hr [4]: 1.00; Substrate use, 590 nm absorbance normalized to zero hour, 1 hr [4]: 1.74; Substrate use, 590 nm absorbance normalized to zero hour, 5 hr [4]: 3.94; Substrate use, 590 nm absorbance normalized to zero hour, 7 hr [4]: 4.56; 590 nm absorbance normalized to zero hour (substrate use), 0 hr [2]: 1.00; 590 nm absorbance normalized to zero hour (substrate use), 11 hr [2]: 6.50
3 | CC(=O)N[C@@H]1C(O)O[C@H](CO)[C@@H](O)[C@@H]1O (stereo partly drawn) [N-Acetyl-D-Mannosamine] | 0.90 | 0.77 | 0.71 | 0.68 | 0.65 | 0.63 | 0.58 | 0.67 | 0.66 | 0.90 | 0.68 | 0.61 | 1.40 | 1.88 | 2.13 | 2.22 | 2.70 | 3.09 | 3.29 | 3.34 | Substrate use, 590 nm absorbance normalized to zero hour, 1 hr [4]: 1.40; Substrate use, 590 nm absorbance normalized to zero hour, 5 hr [4]: 2.60; Substrate use, 590 nm absorbance normalized to zero hour, 7 hr [4]: 2.89; 590 nm absorbance normalized to zero hour (substrate use), 11 hr [2]: 3.55
